According to patent publication US8796460B2, “Compounds for inhibiting KSP kinesin activity” (Mercky Sharp & Dohme Corp., priority 2007, dated 2014):

What follows are compounds tested on HCT116 colon cancer cells (assay: KSP Cellular Assay (percent of cells staining positive for Phos-Histone H3 / Phos-MPM2)). Settings: Homo sapiens, HCT-116, 16 h, Table 101; HCT116 cells, 16 hours with drug; read-out: ED50 (nM) Range.
Type: cell-based
In short: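 HCT116 cells treated with compound for 16 hours, fixed and stained with Hoechst plus Phos-Histone H3 (ser10) and Phos-MPM2 antibodies. Percent positive cells from immunofluorescence imaging; EC50 by sigmoidal nonlinear regression over 8-point dilutions in duplicate.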

SMILES | EC50
CC(=O)N1CCC2(CC1)CC1(SC(c3cc(F)ccc3F)=NN1C(C)=O)c1ccccc1O2 (stereo not shown) [compound 126] | > 1000 nM
CC(=O)N1N=C(c2cc(F)ccc2F)SC12CCCc1ccsc12 (stereo not shown) [compound 107] | > 500 nM
CC(=O)N1N=C(c2cc(F)ccc2F)SC12CCCc1sccc12 (stereo not shown) [compound 103] | > 1000 nM
CC(=O)N1N=C(c2cc(F)ccc2F)SC12CC(C)Oc1ccc(F)cc12 (stereo not shown) [compound 115] | > 1000 nM
CC(=O)N1N=C(C2=C(F)CCC(F)=C2)SC12Cc1ccccc12 (stereo not shown) [compound 120] | ≤ 500 nM

Same assay, conditions: Homo sapiens, HCT-116, 16 h, Table 401; HCT116 cells, 16 hours with drug; read-out: ED50 (nM) Range

SMILES | EC50
CN(C)CCCC(=O)N1N=C(c2cc(F)ccc2F)SC12CCOc1ccccc12 (stereo not shown) [compound 475] | ≤ 500 nM
N[C@H]1C[C@@H](C(=O)N2N=C(c3cc(F)ccc3F)SC23CCc2ccccc23)C1 (stereo partly shown) [compound 501] | ≤ 500 nM
COC(C)C(=O)N1N=C(c2cc(F)ccc2F)SC12CCc1ccccc12 (stereo not shown) [compound 441] | ≤ 500 nM
O=C(c1ccncc1)N1N=C(c2cc(F)ccc2F)SC12CCOc1ccccc12 (stereo not shown) [compound 474] | > 1000 nM
O=C([C@@H]1CCCCN1)N1N=C(c2cc(F)ccc2F)SC12CCCc1ccsc12 (stereo partly shown) [compound 425] | > 1000 nM
O=C(CCC1CCCCN1)N1N=C(c2cc(F)ccc2F)SC12CCc1ccccc12 (stereo not shown) [compound 461] | > 500 nM
N[C@H](C(=O)N1N=C(c2cc(F)ccc2F)SC12CCCc1ccccc12)C1CC1 (stereo partly shown) [compound 418] | > 1000 nM
CN(C)CCCC(=O)N1N=C(c2cc(F)ccc2F)SC12Cc1ccccc12 (stereo not shown) [compound 463] | ≤ 500 nM
O=C(CCCN1CCCCC1)N1N=C(c2cc(F)ccc2F)SC12CCOc1ccccc12 (stereo not shown) [compound 494] | ≤ 500 nM
O=C(C1CCCNC1)N1N=C(c2cc(F)ccc2F)SC12CCSc1ccccc12 (stereo not shown) [compound 405] | > 1000 nM
NCCCC(=O)N1N=C(c2cc(F)ccc2F)SC12CCc1ccccc12 (stereo not shown) [compound 437] | ≤ 500 nM
O=C(C1CCCNC1)N1N=C(c2cc(F)ccc2F)SC12CCCc1ccsc12 (stereo not shown) [compound 426] | > 1000 nM
O=C(C1CCNC1)N1N=C(c2cc(F)ccc2F)SC12CCCc1ccccc12 (stereo not shown) [compound 412] | > 1000 nM
N[C@@H]1CC[C@H](C(=O)N2N=C(c3cc(F)ccc3F)SC23CCOc2ccccc23)C1 (stereo partly shown) [compound 477] | > 500 nM
CN1CCC(C(=O)N2N=C(c3cc(F)ccc3F)SC23CCc2ccccc23)CC1 (stereo not shown) [compound 421] | > 1000 nM
COCC(=O)N1N=C(c2cc(F)ccc2F)SC12CCOc1ccccc12 (stereo not shown) [compound 466] | > 1000 nM
CC(N)CCC(=O)N1N=C(c2cc(F)ccc2F)SC12CCOc1ccccc12 (stereo not shown) [compound 490] | ≤ 500 nM
CNCCCC(=O)N1N=C(c2cc(F)ccc2F)SC12CCOc1ccccc12 (stereo not shown) [compound 489] | ≤ 500 nM
NCCC(=O)N1N=C(c2cc(F)ccc2F)SC12CCc1ccccc12 (stereo not shown) [compound 442] | ≤ 500 nM
O=C(Cc1ccncc1)N1N=C(c2cc(F)ccc2F)SC12CCc1ccccc12 (stereo not shown) [compound 449] | ≤ 500 nM

SMILES | EC50
N[C@H]1CC[C@H](C(=O)N2N=C(c3cc(F)ccc3F)SC23CCOc2ccccc23)CC1 (stereo partly shown) [compound 480] | > 500 nM
N[C@@H]1CC[C@@H](C(=O)N2N=C(c3cc(F)ccc3F)SC23CCOc2ccccc23)C1 (stereo partly shown) [compound 478] | > 500 nM
O=C(C1CC1)N1N=C(c2cc(F)ccc2F)SC12CCOc1ccccc12 (stereo not shown) [compound 464] | 500 to 1000 nM
NCCCCC(=O)N1N=C(c2cc(F)ccc2F)SC12CCc1ccccc12 (stereo not shown) [compound 443] | ≤ 500 nM
O=C(Cc1cccnc1)N1N=C(c2cc(F)ccc2F)SC12CCOc1ccccc12 (stereo not shown) [compound 484] | 500 to 1000 nM
CC(C)C(=O)N1N=C(c2cc(F)ccc2F)SC12CCOc1ccccc12 (stereo not shown) [compound 467] | > 1000 nM
NCCCC(=O)N1N=C(c2cc(F)ccc2F)SC12CCOc1ccccc12 (stereo not shown) [compound 434] | ≤ 500 nM
NC1CCC(C(=O)N2N=C(c3cc(F)ccc3F)SC23CCc2ccccc23)CC1 (stereo not shown) [compound 439] | 500 to 1000 nM
O=C(CCC1CCNCC1)N1N=C(c2cc(F)ccc2F)SC12CCc1ccccc12 (stereo not shown) [compound 462] | ≤ 500 nM
O=C(C1CCCNC1)N1N=C(c2cc(F)ccc2F)SC12CCOc1ccccc12 (stereo not shown) [compound 407] | > 1000 nM
NC(=O)CCC(=O)N1N=C(c2cc(F)ccc2F)SC12CCOc1ccccc12 (stereo not shown) [compound 488] | > 500 nM
O=C(CCCN1CCCCC1)N1N=C(c2cc(F)ccc2F)SC12CCc1ccccc12 (stereo not shown) [compound 456] | ≤ 500 nM
O=C(CCCN1CCOCC1)N1N=C(c2cc(F)ccc2F)SC12CCc1ccccc12 (stereo not shown) [compound 457] | ≤ 500 nM
O=C(CCC1CCCCN1)N1N=C(c2cc(F)ccc2F)SC12CCOc1ccccc12 (stereo not shown) [compound 497] | 500 to 1000 nM
NCCCCC(=O)N1N=C(c2cc(F)ccc2F)SC12CCOc1ccccc12 (stereo not shown) [compound 487] | ≤ 500 nM
CC(C)CC(=O)N1N=C(c2cc(F)ccc2F)SC12CCOc1ccccc12 (stereo not shown) [compound 468] | > 1000 nM
O=C([C@@H]1CCCCN1)N1N=C(c2cc(F)ccc2F)SC12CCSc1ccccc12 (stereo partly shown) [compound 403] | > 1000 nM
NCCCC(=O)N1N=C(c2cc(F)ccc2F)S[C@]12CCOc1ccccc12 [compound 458] | ≤ 500 nM
O=C(CCC1CCCNC1)N1N=C(c2cc(F)ccc2F)SC12CCc1ccccc12 (stereo not shown) [compound 448] | > 1000 nM
O=C(CCCN1CCCC1)N1N=C(c2cc(F)ccc2F)SC12CCc1ccccc12 (stereo not shown) [compound 454] | ≤ 500 nM

Same assay, conditions: Homo sapiens, HCT-116, 16 h, Table 601; HCT116 cells, 16 hours with drug; read-out: EC50 (nM) Range

SMILES | EC50
CN(C)C(=O)N1N=C(c2cc(F)ccc2F)SC12CCCc1sccc12 (stereo not shown) [compound 603] | > 1000 nM
CN(C)C(=O)N1N=C(c2cc(F)ccc2F)SC12CCc1ccccc12 (stereo not shown) [compound 602] | 500 to 1000 nM

Same assay, conditions: Homo sapiens, HCT-116, 16 h, Table 801; HCT116 cells, 16 hours with drug; read-out: EC50 (nM) Range

SMILES | EC50
CC(=O)N1N=C(c2cc(F)ccc2F)S[C@@]12c1cccc(F)c1OC[C@H]2CCN [compound 809] | ≤ 500 nM
CC(=O)N1N=C(c2cc(F)ccc2F)S[C@@]12c1ccccc1OC[C@H]2CCN [compound 815] | ≤ 500 nM
CC(=O)N1N=C(c2cc(F)ccc2F)S[C@]12c1ccccc1OC[C@@H]2CCN [compound 816] | > 1000 nM
CC(=O)N1N=C(c2cc(F)ccc2F)S[C@]12c1cc(F)ccc1OC[C@@H]2CCN [compound 802] | > 1000 nM

Same assay, conditions: Homo sapiens, HCT-116, 16 h, table of Example 901; HCT116 cells, 16 hours with drug; read-out: EC50 (nM) Range

SMILES | EC50
CC(=O)N1N=C(c2cc(F)ccc2F)S[C@]12c1ccccc1C[C@H]2CC#N [compound 906] | ≤ 500 nM

Same assay, conditions: Homo sapiens, HCT-116, 16 h, table of Example 1004; HCT116 cells, 16 hours with drug; read-out: EC50 (nM) Range

SMILES | EC50
CC(=O)N1N=C(c2cc(F)ccc2F)S[C@]12c1ccccc1OC[C@@H]2CCCN [compound 1005] | > 500 nM

Same assay, conditions: Homo sapiens, HCT-116, 16 h, table of Example 1801 (headed Table 1201); HCT116 cells, 16 hours with drug; read-out: EC50 (nM) Range

SMILES | EC50
CC(=O)N1N=C(c2cc(F)cc(F)c2)S[C@]12c1cc(F)ccc1OC[C@@H]2CCN [compound 1824] | > 1000 nM
CC(=O)N1N=C(c2ccccc2)S[C@@]12c1ccccc1OC[C@H]2CCN [compound 1808] | ≤ 500 nM
CC(=O)N1N=C(c2cc(F)cc(F)c2)S[C@@]12c1ccccc1OC[C@H]2CCN [compound 1815] | ≤ 500 nM
CC(=O)N1N=C(c2cc(F)cc(F)c2)S[C@@]12c1cc(F)ccc1OC[C@H]2CCN [compound 1821] | ≤ 500 nM
CC(=O)N1N=C(c2cc(C(F)(F)F)ccc2F)S[C@]12c1ccccc1OC[C@@H]2CCN [compound 1807] | > 1000 nM

Same assay, conditions: Homo sapiens, HCT-116, 16 h, table of Example 1901; HCT116 cells, 16 hours with drug; read-out: EC50 (nM) Range

SMILES | EC50
CO[C@@H](C)C(=O)N1N=C(c2cc(F)ccc2F)S[C@@]12c1cc(F)cc(F)c1OC[C@H]2CCN [compound 1907] | ≤ 500 nM
CO[C@H](C)C(=O)N1N=C(c2cc(F)ccc2F)S[C@@]12c1cc(F)ccc1OC[C@H]2CCN [compound 1904] | ≤ 500 nM

Same assay, conditions: Homo sapiens, HCT-116, 16 h, table of Example 2201; HCT116 cells, 16 hours with drug; read-out: EC50 (nM) Range

SMILES | EC50
CN(C)C(=O)N1N=C(c2cc(F)ccc2F)S[C@@]12c1cc(F)ccc1OC[C@H]2CCN (single isomer, unassigned) [compound 2201] | > 1000 nM
CN(C)C(=O)N1N=C(c2cc(F)ccc2F)S[C@]12c1ccccc1OC[C@@H]2CCN [compound 2204] | ≤ 500 nM
CN(C)C(=O)N1N=C(c2cc(F)ccc2F)S[C@]12c1cc(F)ccc1OC[C@@H]2CCN [compound 2202] | > 1000 nM

Same assay, conditions: Homo sapiens, HCT-116, 16 h, table of Example 2301; HCT116 cells, 16 hours with drug; read-out: EC50 (nM) Range

SMILES | EC50
Fc1ccc(F)c(C2=NN3CCC4COc5ccccc5C43S2)c1 (stereo not shown) [compound 2302] | > 1000 nM

Same assay, conditions: Homo sapiens, HCT-116, 16 h, table of Example 2501; HCT116 cells, 16 hours with drug; read-out: EC50 (nM) Range

SMILES | EC50
CC(=O)N1N=C(c2cc(F)ccc2F)S[C@@]12c1ccccc1NC[C@H]2CCO [compound 2502] | ≤ 500 nM

Same assay, conditions: Homo sapiens, HCT-116, 16 h, table of Example 2701; HCT116 cells, 16 hours with drug; read-out: EC50 (nM) Range

SMILES | EC50
CC(=O)NCC[C@H]1CNc2ccccc2[C@]12SC(c1cc(F)ccc1F)=NN2C(C)=O [compound 2702] | 500 to 1000 nM

Same assay, conditions: Homo sapiens, HCT-116, 16 h, table of Example 2901; HCT116 cells, 16 hours with drug; read-out: EC50 (nM) Range

SMILES | EC50
CC(=O)N1N=C(c2cc(F)ccc2F)S[C@@]12c1cc(F)ccc1NC[C@H]2CCN [compound 2902] | ≤ 500 nM
CC(=O)N1N=C(c2cc(F)ccc2F)S[C@]12c1cc(F)ccc1NC[C@@H]2CCN [compound 2904] | > 1000 nM
CC(=O)N1N=C(c2cc(F)ccc2F)S[C@]12c1cc(F)ccc1NC[C@H]2CCN [compound 2903] | ≤ 500 nM

Same assay, conditions: Table 401; HCT116 cells, 16 hours with drug; read-out: ED50 (nM) Range

SMILES | EC50
NC1CCC(C(=O)N2N=C(c3cc(F)ccc3F)SC23CCc2ccccc23)CC1 (stereo not shown) [compound 445] | > 1000 nM
